pIC50: −log10 of the molar value. Like-named read-outs stand apart in the source and are kept apart here.
How the values were obtained:
in vitro [1] = settings: mouse, att-20 cells
full length USP8 = biological target: T1, full length USP8 (Homo sapiens, UniProt P40818); experiment: Ub-Rho hydrolysis, dose response; assay type: biochemical
T1 sequence (P40818 1-1118): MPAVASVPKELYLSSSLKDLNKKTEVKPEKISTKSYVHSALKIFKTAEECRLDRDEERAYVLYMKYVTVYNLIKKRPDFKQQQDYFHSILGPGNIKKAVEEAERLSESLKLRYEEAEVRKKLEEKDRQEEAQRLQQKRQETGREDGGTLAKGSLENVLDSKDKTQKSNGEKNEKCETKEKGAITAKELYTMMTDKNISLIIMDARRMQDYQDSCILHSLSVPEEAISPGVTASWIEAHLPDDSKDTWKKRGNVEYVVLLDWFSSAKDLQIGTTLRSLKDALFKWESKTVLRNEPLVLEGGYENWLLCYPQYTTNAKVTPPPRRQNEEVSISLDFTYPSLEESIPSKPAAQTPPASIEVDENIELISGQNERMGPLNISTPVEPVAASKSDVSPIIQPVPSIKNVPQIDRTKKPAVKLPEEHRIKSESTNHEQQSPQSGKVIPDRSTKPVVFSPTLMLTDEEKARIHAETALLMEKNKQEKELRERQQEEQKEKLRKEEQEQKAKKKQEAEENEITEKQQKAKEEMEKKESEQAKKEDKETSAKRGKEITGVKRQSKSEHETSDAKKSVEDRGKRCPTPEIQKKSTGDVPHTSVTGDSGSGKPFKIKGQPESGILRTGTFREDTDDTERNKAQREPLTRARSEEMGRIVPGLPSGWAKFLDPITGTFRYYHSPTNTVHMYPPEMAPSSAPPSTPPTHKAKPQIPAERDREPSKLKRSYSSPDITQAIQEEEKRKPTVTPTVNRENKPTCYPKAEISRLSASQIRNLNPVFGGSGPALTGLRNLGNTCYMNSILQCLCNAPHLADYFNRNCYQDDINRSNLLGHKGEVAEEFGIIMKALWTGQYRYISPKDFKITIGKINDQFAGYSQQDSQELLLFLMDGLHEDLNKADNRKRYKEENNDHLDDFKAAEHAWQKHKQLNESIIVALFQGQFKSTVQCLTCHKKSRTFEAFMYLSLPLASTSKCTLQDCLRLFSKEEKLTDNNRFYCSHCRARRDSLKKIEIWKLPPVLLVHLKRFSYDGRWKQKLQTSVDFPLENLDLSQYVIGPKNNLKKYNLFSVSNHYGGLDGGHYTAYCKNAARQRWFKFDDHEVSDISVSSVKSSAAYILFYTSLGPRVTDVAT

in vitro [2] = experiment: in vitro; design: species or system AtT-20; settings: mouse, att-20 cells, AtT-20 cell viability at 25µM, % of control
AtT-20 = experiment: in vitro; settings: Ambinter Amb2704313 batch; 24 h
in vitro [3] = settings: mouse, att-20 cells; remark: listed apart in the source

O=C(Nc1ccc(O)cc1)c1cc(I)ccc1O [ZINC194061705]
viability at 24 h, 25 µM (in vitro [1]): 107%

Cc1ccc(NC(=O)c2cc(I)cc(I)c2O)cc1 [ZINC4014108]
pIC50 (full length USP8; 0.1 µM Ub-Rho): 4.84 | viability at 24 h, 25 µM (in vitro [2]): 93.5%

O=C(Nc1ccc(Cl)cc1Cl)c1cc(I)cc(I)c1O [ZINC4181894]
viability at 24 h, 25 µM (in vitro [2]): 89.6%

Cc1ccc(C(=O)c2cc(NC(=O)c3cc(I)cc(I)c3O)ccc2Cl)cc1 [ZINC72119086]
viability at 24 h, 25 µM (in vitro [2]): 109%

O=C(CSc1ccccc1F)Nc1cccc(OCc2ccccn2)c1 [ZINC32922917]
viability at 24 h, 25 µM (in vitro [2]): 101%

O=C(Nc1ccc(Oc2ccc(Cl)cc2)c(Cl)c1)c1cc(I)cc(I)c1O [Rafoxanide]
viability at 24 h, 25 µM (in vitro [2]): 56.2% | AtT-20 cell viability at 25µM, % of control (AtT-20): 39.3%

O=C(Nc1cc(Cl)ccc1Cl)c1cc(I)cc(I)c1O [ZINC4014105]
viability at 24 h, 25 µM (in vitro [2]): 95.7%

O=C(Nc1ccc(Cl)cc1)c1cc(I)cc(I)c1O [ZINC4014104]
pIC50 (full length USP8; 0.1 µM Ub-Rho): 4.92 | viability at 24 h, 25 µM (in vitro [2]): 58.8%

O=C(Nc1cc(Cl)cc(Cl)c1O)c1c(O)c(Cl)cc(Cl)c1Cl [Oxyclozanide]
viability at 24 h, 25 µM (in vitro [3]): 98.1%

O=C(Nc1ccccc1)c1ccccc1O [salicylanilide backbone]
pIC50 (full length USP8): < 4.30

O=C(Nc1ccc(Cl)cc1C(=O)c1ccccc1F)c1ccc(=O)[nH]c1 [ZINC9579366]
viability at 24 h, 25 µM (in vitro [1]): 103%

CC(=O)Oc1c(I)cc(I)cc1C(=O)Nc1ccc(Cl)cc1 [Clioxanide]
viability at 24 h, 25 µM (in vitro [3]): 94.2%

Cc1ccc(NC(=O)Cn2ccccc2=O)c(OCc2ccccc2)c1 [ZINC55784788]
viability at 24 h, 25 µM (in vitro [1]): 96%

O=C(NCc1cccc(OCc2ccccn2)c1)c1csc(Br)c1 [ZINC40111866]
viability at 24 h, 25 µM (in vitro [2]): 98.9%

O=C(Nc1ccc([N+](=O)[O-])cc1Cl)c1cc(Cl)ccc1O [Niclosamide]
viability at 24 h, 27 µM (in vitro [3]): 50%

O=C(Nc1cc(Cl)cc(Cl)c1)c1cc(I)cc(I)c1O [ZINC4014253]
viability at 24 h, 25 µM (in vitro [2]): 68%

— article doi:10.1101/2025.02.26.640120v1 (biorxiv, 2025)
